Measurements reported in patent publication US6916923B2 (Hoffmann-La Roche Inc., priority 1999, dated 2005).

How the values were obtained:
[1] = target: T1, Recombinant active human Cyclin E/CDK2 complexes (Homo sapiens, UniProt P24941); assay: CDK2 FlashPlate Assay (inhibition of Rb phosphorylation); assay type: biochemical; conditions: Cyclin E/CDK2, Rb substrate, 33P-ATP, 25 minutes at room temperature; read-out: Inhibition of Cdk2 - IC50 Range
T1 construct: made in house; host or cells: insect cells
Experimental: To determine inhibition of CDK2 activity, purified recombinant retinoblastoma (Rb) protein was coated on 96 well FlashPlates (New England Nuclear, Boston, Mass.). Rb is a natural substrate for phosphorylation by CDK2 (Herwig and Strauss Eurr. J. Biochem., Vol. 246 (1997) pp. 581-601 and references therein). Recombinant active human Cyclin E/CDK2 complexes were partially purified from extracts of insect cells. The active Cyclin E/CDK2 was added to the Rb-coated FlashPlates along with ^33P-ATP and dilutions of test compounds. Plates were incubated for 25 minutes at room temperature with shaking, then washed and counted in the Topcount scintillation counter (Packard Instrument Co., Downers Grove, Ill.). Dilutions of test compounds were tested in duplicate in each assay. The percent inhibition of Rb phosphorylation, which is a measure of the inhibition of CDK2 activity, was determined according to the following formula: [formula] where “test compound” refers to the average counts per minute of the test duplicates, “nonspecific” refers to the average counts per minute when no Cyclin E/CDK2 was added, and “total” refers to the average counts per minute when no compound was added.

[2] = test system: colon carcinoma line HCT-116; assay: HCT-116 cell-based antiproliferative (MTT) assay; conditions: Homo sapiens, HCT-116, 96 h, 1000 cells per well, 4 days post addition of test compound, read-out: Antiproliferative Activity HCT 116 (colon) Assay - IC50 Range
Experimental: (§1) The estrogen receptor negative epithelial breast carcinoma line (MDA-MB-435) was purchased from American Type Cell Culture Collection (ATCC; Rockville, Md.) and was grown in the medium recommended by ATCC. For analysis of the effect of the test compounds on growth of these cells, the cells were plated at 2000 cells per well in a 96-well tissue culture plate, and were incubated overnight at 37° C. with 5% CO2. The next day, the test compounds were dissolved in 100% dimethyl sulfoxide (DMSO) to yield a 10 mM stock solution. Each compound was diluted with sterile medium to 1 mM in a sufficient quantity to yield a final concentration of 120 μM. The compounds were then serially diluted in medium with 1.2% DMSO. One-fourth final volume of the diluted compounds was transferred to 96 well plates. Test compounds were assayed in duplicate. DMSO was added to a row of “control cells” such that the final concentration of DMSO in each well was 0.3%. Wells to which no cells were added served as the “blank.” Wells to which no inhibitor was added served as “no inhibitor control”. The plates were returned to the incubator, and 5 days post addition of test compound, were analyzed as described below.
(§2) 3-(4,5-Dimethylthiazole-2-yl)-2,5-diphenyl-2H-tetrazolium bromide (thiazolyl blue; MTT) was added to each well to yield a final concentration of 1 mg/mL. The plates were then incubated at 37° C. for 3 hours. The plates were centrifuged at 1000 rpm for 5 minutes prior to aspiration of the MTT-containing medium. The MTT-containing medium was then removed and 100 μL 100% ethanol was added to each well to dissolve the resulting formazan metabolite. To ensure complete dissolution, plates were shaken for 15 minutes at room temperature. Absorbencies were read in a microtiter plate reader (Molecular Dynamics) at a wavelength of 570 nm with a 650 nm reference. Percent inhibition was calculated by subtracting the absorbance of the blank (no cell) wells from all wells, then subtracting the division of the average absorbance of each test duplicate by the average of the controls from 1.00. Inhibitory concentrations (IC50) were determined from the linear regression of a plot of the logarithm of the concentration versus the percent inhibition.
(§3) The colon adenocarcinoma line SW480 and the colon carcinoma line HCT-116 also were obtained from the ATCC and were tested according to the same protocol provided above for MDA-MB435 cell based assay with the following modifications. Cell line SW480 was plated at 1000 cells per well and analyzed at 6 days post addition of the test compound. Cell line HCT-116 was plated at 1000 cells per well and analyzed at 4 days post addition of test compound.

[3] = test system: estrogen receptor negative epithelial breast carcinoma line (MDA-MB-435); assay: MDA-MB-435 cell-based antiproliferative (MTT) assay; conditions: Homo sapiens, MDA-MB-435, 120 h, 2000 cells per well, 5 days post addition of test compound, read-out: Antiproliferative Activity of MDA-MB435 (breast) Assay - IC50 Range
Experimental: as §1, §2

[4] = test system: colon adenocarcinoma line SW480; assay: SW480 cell-based antiproliferative (MTT) assay; conditions: Homo sapiens, SW480, 144 h, 1000 cells per well, 6 days post addition of test compound, read-out: Antiproliferative Activity SW480 (colon) Assay - IC50 Range
Experimental: as §1, §2, §3

| Compound | melting point [°C] | IC50 [1] [nM] | IC50 [2] [nM] | IC50 [3] [nM] | IC50 [4] [nM] |
| --- | --- | --- | --- | --- | --- |
| Clc1ccccc1-c1nccnc2c1cc(Cl)c1nncc12 [Compound A4, 5-(2-chlorophenyl)-7-chloro-pyrazolo[3,4][1,4]benzodiazepine] | > 300 |  |  |  |  |
| O=[N+]([O-])c1ccc2c(c1)C(c1ccccc1Cl)=Nc1c[nH]nc1N2 [Compound A5, 5-(2-chlorophenyl)-7-nitro-pyrazolo[3,4][1,4]benzodiazepine] |  | 10 to 990 | 10000 to 30000 | 10000 to 30000 | 1100 to 9990 |
| O=[N+]([O-])c1ccc2c(c1)C(c1ccccc1F)=Nc1c[nH]nc1N2 [Compound A13, 5-(2-fluorophenyl)-7-nitro-pyrazolo[3,4][1,4]benzodiazepine] |  | 10 to 990 | 10000 to 30000 | 10000 to 30000 | 1100 to 9990 |
| Cc1[nH]nc2c1N=C(c1ccccc1Cl)c1cc([N+](=O)[O-])ccc1N2 [Compound B3, 3-methyl-5-(2-chlorophenyl)-7-nitro-pyrazolo[3,4][1,4]benzodiazepine] |  | 10 to 990 | 10 to 1000 | 10 to 1000 | 10 to 1000 |
| CCc1[nH]nc2c1N=C(c1ccccc1Cl)c1cc([N+](=O)[O-])ccc1N2 [Compound B4, 3-ethyl-5-(2-chlorophenyl)-7-nitro-pyrazolo[3,4][1,4]benzodiazepine] |  | 10 to 990 | 10 to 1000 | 10 to 1000 | 10 to 1000 |
| O=[N+]([O-])c1ccc2c(c1)C(c1ccccc1Cl)=Nc1c(n[nH]c1CCc1ccccc1)N2 [Compound B5, 3-(2-phenylethyl)-5-(2-chlorophenyl)-7-nitro-pyrazolo[3,4][1,4]benzodiazepine] |  | 1000 to 9990 | 10000 to 30000 | 10000 to 30000 | 10000 to 30000 |
| CC(C)c1[nH]nc2c1N=C(c1ccccc1Cl)c1cc([N+](=O)[O-])ccc1N2 [Compound B6] |  | 10 to 990 | 1100 to 9990 | 10 to 1000 | 10 to 1000 |
| Cc1[nH]nc2c1N=C(c1ccccc1F)c1cc(C#N)ccc1N2 [Compound B7, 3-methyl-5-(2-fluorophenyl)-pyrazolo[3,4][1,4]benzodiazepine-7-carbonitrile] |  | 10 to 990 | 1100 to 9990 | 10 to 1000 | 10 to 1000 |
| O=[N+]([O-])c1ccc2c(c1)C(c1ccccc1Cl)=Nc1c(n[nH]c1Cc1ccccc1)N2 [Compound B8, 3-(phenylmethyl)-5-(2-chlorophenyl)-7-nitro-pyrazolo[3,4][1,4]benzodiazepine] |  | 1000 to 9990 | 10000 to 30000 | 10000 to 30000 | 10000 to 30000 |
| CCOC(=O)c1ccc2c(c1)C(c1ccccc1F)=Nc1c(n[nH]c1C)N2 [Compound B9, 3-methyl-5-(2-fluorophenyl)-7-carboethoxy-pyrazolo[3,4][1,4]benzodiazepine] |  | 10 to 990 | 1100 to 9990 | 1100 to 9990 | 1100 to 9990 |
| CCCc1[nH]nc2c1N=C(c1ccccc1Cl)c1cc([N+](=O)[O-])ccc1N2 [Compound B24, 3-propyl-5-(2-chlorophenyl)-7-nitro-pyrazolo[3,4][1,4]benzodiazepine] |  | 10 to 990 | 10000 to 30000 | 10000 to 30000 | 10000 to 30000 |
| O=[N+]([O-])c1ccc2c(c1)C(c1ccccc1Cl)=Nc1c(n[nH]c1C1CC1)N2 [Compound B25, 3-cyclopropyl-5-(2-chlorophenyl)-7-nitro-pyrazolo[3,4][1,4]benzodiazepine] |  | 10 to 990 | 1100 to 9990 | 10 to 1000 | 1100 to 9990 |

More lines, now with the values ahead:

| melting point [°C] | IC50 [1] [nM] | IC50 [2] [nM] | IC50 [3] [nM] | IC50 [4] [nM] | Compound |
| --- | --- | --- | --- | --- | --- |
| 260 to 263 |  |  |  |  | Cc1cnc2c(cc(N)c3nncc32)c(-c2ccccc2Cl)n1 [Compound C4, 3-methyl-5-(2-chlorophenyl)-7-amino-pyrazolo[3,4][1,4]benzodiazepine] |
|  | 1000 to 9990 | 10000 to 30000 | 10000 to 30000 | 10000 to 30000 | Nc1ccc2c(c1)C(c1ccccc1Cl)=Nc1c[nH]nc1N2 [Compound C5, 5-(2-chlorophenyl)-7-amino-pyrazolo[3,4][1,4]benzodiazepine] |
| 196 to 198 |  |  |  |  | Cc1cnc2c(cc(NS(C)(=O)=O)c3nncc32)c(-c2ccccc2Cl)n1 [Compound C9, N-(3-methyl-5-(2-chlorophenyl)-pyrazolo[3,4][1,4]benzodiazepin-7-yl)-methanesulfonamide] |
| > 340 |  |  |  |  | NC(=O)c1cnc2c(cc([N+](=O)[O-])c3nncc32)c(-c2ccccc2Cl)n1 [Compound C10, 5-(2-chlorophenyl)-7-nitro-pyrazolo[3,4][1,4]benzodiazepine-3-carboxamide] |
| 193 to 196 |  |  |  |  | N#Cc1cnc2c(cc([N+](=O)[O-])c3nncc32)c(-c2ccccc2Cl)n1 [Compound C18, 5-(2-chlorophenyl)-7-nitro-pyrazolo[3,4][1,4]benzodiazepine-3-carbonitrile] |
| 323 to 324 |  |  |  |  | Cc1cnc2c(cc(C(N)=O)c3nncc32)c(-c2ccccc2F)n1 [Compound C19, 3-methyl-5-(2-fluorophenyl)-pyrazolo[3,4][1,4]benzodiazepine-7-carboxamide] |
|  | 10 to 990 | 10000 to 30000 |  | 10000 to 30000 | O=[N+]([O-])c1ccc2c(c1)C(c1ccccc1Cl)=Nc1c(n[nH]c1-c1cccs1)N2 [Compound D6] |
|  | 10 to 990 | 10000 to 30000 |  | 10000 to 30000 | O=[N+]([O-])c1ccc2c(c1)C(c1ccccc1Cl)=Nc1c(n[nH]c1-c1ccco1)N2 [Compound D7] |
|  | 1000 to 9990 | 10000 to 30000 |  | 10000 to 30000 | Cc1ccccc1-c1[nH]nc2c1N=C(c1ccccc1Cl)c1cc([N+](=O)[O-])ccc1N2 [Compound D37] |
|  | 10 to 990 | 1100 to 9990 |  | 1100 to 9990 | NC(=O)c1ccc2c(c1)C(c1ccccc1F)=Nc1c[nH]nc1N2 [Compound D50] |
